Experimental data reported in PubChem BioAssay AID1963974 (Molecular Pharmacology Branch, DTP, NCI, 2024).

Test system: 648629-189-R-J1-PDC spheroids with HUVEC/MSC, viability
Assay: Anticancer human tumor 648629-189-R-J1-PDC patient-derived bladder carcinoma cell line growth inhibition [PI3K]
Details: for IC50: curve of first compound; for viability, T/C: stronger effect = lower value
Procedure, shortened: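 Tumor cells were combined with HUVEC and MSCs into spheroids, then dosed with PI3K-inhibitor combinations over half-log ranges capped near clinical Cmax or 10 microM.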

[1] = second compound 0.00316 µM, first compound 0.0316 µM
[2] = second compound 0.00316 µM, first compound 0.1 µM
[3] = second compound 0.00316 µM, first compound 0.316 µM
[4] = second compound 0.00316 µM, first compound 1 µM
[5] = second compound 0.00316 µM, first compound 3.16 µM
[6] = second compound 0.00316 µM, first compound 10 µM
[7] = second compound 0.01 µM, first compound 0.0316 µM
[8] = second compound 0.01 µM, first compound 0.1 µM
[9] = second compound 0.01 µM, first compound 0.316 µM
[10] = second compound 0.01 µM, first compound 1 µM
[11] = second compound 0.01 µM, first compound 3.16 µM
[12] = second compound 0.01 µM, first compound 10 µM
[13] = second compound 0.0316 µM, first compound 0.0316 µM
[14] = second compound 0.0316 µM, first compound 0.1 µM
[15] = second compound 0.0316 µM, first compound 0.316 µM
[16] = second compound 0.0316 µM, first compound 1 µM
[17] = second compound 0.0316 µM, first compound 3.16 µM
[18] = second compound 0.0316 µM, first compound 10 µM
[19] = second compound 0.1 µM, first compound 0.0316 µM
[20] = second compound 0.1 µM, first compound 0.1 µM
[21] = second compound 0.1 µM, first compound 0.316 µM
[22] = second compound 0.1 µM, first compound 1 µM
[23] = second compound 0.1 µM, first compound 3.16 µM
[24] = second compound 0.1 µM, first compound 10 µM
[25] = second compound 0.316 µM, first compound 0.0316 µM
[26] = second compound 0.316 µM, first compound 0.1 µM
[27] = second compound 0.316 µM, first compound 0.316 µM
[28] = second compound 0.316 µM, first compound 1 µM
[29] = second compound 0.316 µM, first compound 3.16 µM
[30] = second compound 0.316 µM, first compound 10 µM
[31] = second compound 1 µM, first compound 0.0316 µM
[32] = second compound 1 µM, first compound 0.1 µM
[33] = second compound 1 µM, first compound 0.316 µM
[34] = second compound 1 µM, first compound 1 µM
[35] = second compound 1 µM, first compound 3.16 µM
[36] = second compound 1 µM, first compound 10 µM
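Also: spheroids exposed to agents for seven days before reading.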
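For viability, T/C in this document: percent of vehicle control luminescence where 100% = DMSO treated spheroids.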

CC(C)NCC(C(=O)N1CCN(c2ncnc3c2C(C)CC3O)CC1)c1ccc(Cl)cc1 (centres undefined) + CC(Nc1ccc2c(c1)OCCn1cc(N3C(=O)OCC3C(F)F)nc1-2)C(N)=O
IC50 (second compound 0.00316 µM): 1280 nM | IC50 (second compound 0.01 µM): 1010 nM | IC50 (second compound 0.0316 µM): 870 nM | IC50 (second compound 0.1 µM): 1150 nM | IC50 (second compound 0.316 µM): 645 nM | IC50 (second compound 1 µM): 437 nM | viability, T/C [1]: 110% | viability, T/C [2]: 97.4% | viability, T/C [3]: 91.8% | viability, T/C [4]: 54.9% | viability, T/C [5]: 27.3% | viability, T/C [6]: 13.5% | viability, T/C [7]: 95.5% | viability, T/C [8]: 105% | viability, T/C [9]: 81% | viability, T/C [10]: 50.2% | viability, T/C [11]: 26.8% | viability, T/C [12]: 16.2% | viability, T/C [13]: 90.1% | viability, T/C [14]: 99.3% | viability, T/C [15]: 77.7% | viability, T/C [16]: 44.5% | viability, T/C [17]: 27.1% | viability, T/C [18]: 14% | viability, T/C [19]: 82.7% | viability, T/C [20]: 80.7% | viability, T/C [21]: 78.2% | viability, T/C [22]: 52.4% | viability, T/C [23]: 25.3% | viability, T/C [24]: 13.6% | viability, T/C [25]: 83.1% | viability, T/C [26]: 75.6% | viability, T/C [27]: 63.8% | viability, T/C [28]: 41.3% | viability, T/C [29]: 24.6% | viability, T/C [30]: 14.2% | viability, T/C [31]: 65.2% | viability, T/C [32]: 67.8% | viability, T/C [33]: 56.6% | viability, T/C [34]: 32.2% | viability, T/C [35]: 19% | viability, T/C [36]: 12.6%

C=CC(=O)N1CCN(c2nc(=O)n(-c3c(C)ccnc3C(C)C)c3nc(-c4c(O)cccc4F)c(F)cc23)C(C)C1 (centres undefined) + CC(Nc1ccc2c(c1)OCCn1cc(N3C(=O)OCC3C(F)F)nc1-2)C(N)=O
IC50 (second compound 0.00316 µM): > 10000 nM | IC50 (second compound 0.01 µM): > 10000 nM | IC50 (second compound 0.0316 µM): > 10000 nM | IC50 (second compound 0.1 µM): > 10000 nM | IC50 (second compound 0.316 µM): > 10000 nM | IC50 (second compound 1 µM): > 10000 nM | viability, T/C [1]: 111% | viability, T/C [2]: 99.1% | viability, T/C [3]: 117% | viability, T/C [4]: 105% | viability, T/C [5]: 106% | viability, T/C [6]: 92.3% | viability, T/C [7]: 121% | viability, T/C [8]: 106% | viability, T/C [9]: 111% | viability, T/C [10]: 114% | viability, T/C [11]: 115% | viability, T/C [12]: 92.3% | viability, T/C [13]: 101% | viability, T/C [14]: 108% | viability, T/C [15]: 98.2% | viability, T/C [16]: 106% | viability, T/C [17]: 123% | viability, T/C [18]: 92.5% | viability, T/C [19]: 92.4% | viability, T/C [20]: 106% | viability, T/C [21]: 107% | viability, T/C [22]: 115% | viability, T/C [23]: 103% | viability, T/C [24]: 92.5% | viability, T/C [25]: 92.6% | viability, T/C [26]: 93.1% | viability, T/C [27]: 84.1% | viability, T/C [28]: 95.2% | viability, T/C [29]: 84.5% | viability, T/C [30]: 78.1% | viability, T/C [31]: 73.1% | viability, T/C [32]: 71.9% | viability, T/C [33]: 73.5% | viability, T/C [34]: 80.7% | viability, T/C [35]: 91.8% | viability, T/C [36]: 66.2%
